Consider one cell line from the supplement of paper PMC10307832.

Common to all, as to assay: relative viability (nuclei count vs DMSO), 5 days (fraction); higher = more cells survive
Compound in the test “Mirin + Palbociclib”: N=C1NC(=O)/C(=C/c2ccc(O)cc2)S1 [Mirin] + CC(=O)c1c(C)c2cnc(Nc3ccc(N4CCNCC4)cn3)nc2n(C2CCCC2)c1=O [Palbociclib] (partner 0.5 µM)
The procedure, abridged: (§1)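 One day after seeding in 1536-well plates, lung cancer cell lines were dosed by pin tool. Dosing was either single-drug or a fixed anchor-drug dose plus five library-drug doses (not always all listed) in √10 steps. After 5 days, nuclei were stained in one fix-and-stain step and counted on 4× images, and relative viability is the nuclei count of treated wells over that of vehicle wells, given as the median of duplicate plates.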

Compound in the test “Mirin + Dasatinib”: N=C1NC(=O)/C(=C/c2ccc(O)cc2)S1 [Mirin] + Cc1nc(Nc2ncc(C(=O)Nc3c(C)cccc3Cl)s2)cc(N2CCN(CCO)CC2)n1 [Dasatinib] (partner 0.075 µM)
The gist of the method:
as §1

Compound in test [1]: CCC1=CN=CN=C1N2CCN(CC2)CC3=NC4=C(N3)C=C(C=C4)C(F)(F)F + Nc1nc2[nH]cc(CCc3ccc(C(=O)N[C@@H](CCC(=O)O)C(=O)O)cc3)c2c(=O)[nH]1 [Pemetrexed] (partner 0.2 µM)
The procedure, abridged: as §1

Compound in the test “Mirin + Pemetrexed”: N=C1NC(=O)/C(=C/c2ccc(O)cc2)S1 [Mirin] + Nc1nc2[nH]cc(CCc3ccc(C(=O)N[C@@H](CCC(=O)O)C(=O)O)cc3)c2c(=O)[nH]1 [Pemetrexed] (partner 0.2 µM)
The procedure, abridged:
as §1

For the cell line UMC-11, the relative viability was 0.33 in the test with Mirin + Palbociclib (first compound 0.25 µM); 0.317 in the test with Mirin + Palbociclib (first compound 2.5 µM); 0.331 with Mirin + Palbociclib (first compound 7.906 µM); 0.309 with Mirin + Palbociclib (first compound 25 µM); 0.45 with Mirin + Dasatinib (first compound 0.25 µM); 0.424 with Mirin + Dasatinib (first compound 0.7906 µM). Further, the relative viability with Mirin + Dasatinib (first compound 2.5 µM) turned out to be 0.493; with Mirin + Dasatinib (first compound 7.906 µM), 0.415; with Mirin + Dasatinib (first compound 25 µM) it was 0.438; in test [1] (first compound 0.04 µM) it was 0.772; in test [1] (first compound 0.1265 µM) it was 0.767; in test [1] (first compound 0.4 µM) it was 0.83. In addition, the relative viability is 0.761 in test [1] (first compound 1.265 µM); 0.724 in test [1] (first compound 4 µM); 0.787 with Mirin + Pemetrexed (first compound 0.25 µM); 0.74 in the test with Mirin + Pemetrexed (first compound 0.7906 µM); 0.92 in the test with Mirin + Pemetrexed (first compound 2.5 µM); 0.691 in the test with Mirin + Pemetrexed (first compound 7.906 µM). In the test with Mirin + Pemetrexed (first compound 25 µM), the relative viability amounted to 0.568.
